In EP2876156A1 (COMMISSARIAT A L'ENERGIE ATOMIQUE ET AUX ENERGIES …, priority 2013, dated 2015):

Columns and labels:
[1] = target: T1, ENZ3 SEQ ID NO:3 (Chitinophaga pinensis, UniProt C7PLM6); type: biochemical; details: enzyme 0.08 mg/mL, molar ratio α-ketoglutarate/substrate 15/10, Hepes buffer 50 mM pH 7,5, Mohr's salt 1mM, without sodium ascorbate, room temperature, three hours
T1 construct: His6 (hexahistidine, inserted after the initial methionine) (N); made in house; host or cells: E. coli BL21(DE3) plysE
T1 sequence (C7PLM6 1-382): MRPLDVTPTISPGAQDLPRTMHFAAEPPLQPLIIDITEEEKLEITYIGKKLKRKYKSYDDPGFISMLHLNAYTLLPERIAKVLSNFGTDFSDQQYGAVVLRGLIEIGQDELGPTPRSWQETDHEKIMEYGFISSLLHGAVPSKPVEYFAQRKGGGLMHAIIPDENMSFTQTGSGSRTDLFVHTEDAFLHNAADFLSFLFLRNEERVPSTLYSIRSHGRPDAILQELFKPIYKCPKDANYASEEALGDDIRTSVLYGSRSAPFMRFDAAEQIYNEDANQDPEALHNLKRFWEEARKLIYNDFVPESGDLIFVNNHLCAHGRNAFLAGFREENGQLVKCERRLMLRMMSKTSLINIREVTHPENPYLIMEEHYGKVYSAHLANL
Experimental: (§1) Enzymatic reaction medium (0.2 µmole, leq.), borate buffer 0,2M pH 7.7 (80 µL) and Fmoc-Cl solution7.5 mM in acetone (100 µL, 0.75 µmole, 3.75 eq) were hand shaked in a closed 1.50 mL eppendorf for one minute. The aqueous layer was extracted with petroleum ether (3*1 mL) to eliminate excess of Fmoc-Cl. 70 µL of the aqueous phase were withdrawn, diluted with 70 µL of acetonitrile and injected into the HPLC. For substrates with two amine functions, 100 µL of Fmoc-Cl solution 15 mM were used.
(§2) Conditions for HPLC analysis: Atlantis® T3 (3 µm 4.5*150 mm) at 35°C with the gradient 50-86% eluent B (MeCN + 0.1% TFA) and eluent A (H2O + 0.1% TFA) in 20 min at 1 mL/min.
(§3) Enzymes (0.08 mg/mL) were screened against substrates (molar ratio α-ketoglutarate/substrate 15/10) in Hepes buffer 50 mM pH 7,5, with Mohr's salt at 1mM and without sodium ascorbate, at room temperature for three hours. The potential conversions of the substrates were determined by HPLC after Fmoc-Cl derivatization as section III here above.

[2] = target: T2, ENZ2 SEQ ID NO:2 (Flavobacterium johnsoniae, UniProt A5FF23); type: biochemical; details: enzyme 0.08 mg/mL, molar ratio α-ketoglutarate/substrate 15/10, Hepes buffer 50 mM pH 7,5, Mohr's salt 1mM, without sodium ascorbate, room temperature, three hours
T2 construct: His6 (hexahistidine, inserted after the initial methionine) (N); made in house; host or cells: E. coli BL21(DE3) plysE
T2 sequence (A5FF23 1-370): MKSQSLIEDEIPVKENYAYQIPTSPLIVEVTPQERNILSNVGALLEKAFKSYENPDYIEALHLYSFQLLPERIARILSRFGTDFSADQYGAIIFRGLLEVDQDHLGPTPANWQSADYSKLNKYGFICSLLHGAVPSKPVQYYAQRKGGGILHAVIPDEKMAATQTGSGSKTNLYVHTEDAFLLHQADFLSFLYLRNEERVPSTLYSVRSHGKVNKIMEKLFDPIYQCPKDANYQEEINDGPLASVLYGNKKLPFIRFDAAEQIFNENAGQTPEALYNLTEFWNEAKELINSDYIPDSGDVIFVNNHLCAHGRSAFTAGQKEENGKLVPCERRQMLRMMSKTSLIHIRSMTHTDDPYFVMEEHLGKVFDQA
Experimental: as §1, §2, §3

[3] = target: T1, ENZ3 SEQ ID NO:3; experiment: Enzymatic hydroxylation of L-lysine, 10 mL scale, conversion by HPLC (protocol A); type: biochemical; details: printed 'with ENZ1'; protocol lists ENZ3 0.031 mg/mL; otherwise as ENZ1 protocol (L-lysine 10 mM, room temperature, 18h)
Experimental: as §1, §2
(§4) Enzymatic reaction was carried out in 250 mL glass erlenmeyer flask for a total volume of 4*10 mL. […] The conversion of L-lysine into 3-hydroxy-L-lysine (94%) was determined by HPLC after derivatization with Fmoc-Cl according to protocol A.
(§5) The protocol used was the same as that described above for the hydroxylation by ENZ1 except that the enzyme concentrations used were different (ENZ2: 0.086 mg/mL; ENZ3: 0.031 mg/mL). Conversions were determined by HPLC after derivatization with Fmoc-Cl according to protocol A as described above. […]

[4] = target: T3, ENZ2 (SEQ ID NO:2) (Flavobacterium johnsoniae, UniProt A5FF23); experiment: as above; type: biochemical; details: with ENZ2 0.086 mg/mL; otherwise as ENZ1 protocol (L-lysine 10 mM, room temperature, 18h)
T3 construct: His6 (hexahistidine, inserted after the initial methionine) (N); made in house; host or cells: E. coli BL21(DE3) plysE
Experimental: as §1, §2, §4, §5

[5] = system: ENZ1 (SEQ ID NO:1) and ENZ2 (SEQ ID NO:2); experiment: Cascade dihydroxylation of L-lysine, conversion by HPLC (protocol A); type: biochemical, Catenulispora acidiphila; Flavobacterium johnsoniae; details: ENZ1 0.13 mg/mL 3h, then ENZ2 added, 18 h, room temperature
Experimental: as §1, §2
Enzymatic reaction was carried out in 250 mL glass erlenmeyer flask for a total volume of 4*10 mL. Water (5.6 mL), Hepes buffer 1M pH 7.50 (0.5 mL, 50 mM), L-lysine […] (1 mL, 10 mM), α-ketoglutarate 150 mM (1 mL, 15 mM), sodium ascorbate 100 mM (0.25 mL, 2,5 mM), ammonium Iron(II) sulfate hexahydrate 10 mM (1 mL, 1 mM) were poured into the erlenmeyer. The reaction was started by ENZ1 addition (1.99 mg/mL, 0.65 mL, final concentration 0.13 mg/mL). […] The conversion (90%) was determined by HPLC after derivatization with Fmoc-Cl according to protocol A. The assembled reaction mixtures were acidified with 200 µL of TFA then centrifuged. […]

`NCCCC[C@H](N)C(=O)O` [L-lysine] was tested, and the “potential conversions of the substrates, ENZ3 SEQ ID NO:3” value [1] was “positive”, the “potential conversions of the substrates, ENZ2 SEQ ID NO:2” value [2] was “positive” and the “conversion of L-lysine into (4R)-hydroxy-L-lysine” value [3] was 96%. The “conversion of L-lysine into (4R)-hydroxy-L-lysine” value [4] was 91% and the “conversion (L-lysine dihydroxylation to 3,4-di-hydroxy-L-lysine)” value [5] was 90%.
